{
  "source": "patent US4339390A",
  "about": "“Preferential immunoreactivity of syn-isomer of cortisol derivative” (Abbott Laboratories, priority 1981, dated 1982)",
  "test_system": "cortisol antibodies (antisera to cortisol-3-carboxymethyloxime-BSA)",
  "assay": "competitive radioimmunoassay, binding affinity curves on antibody-coated polystyrene beads",
  "design": "species or system rabbit",
  "protocol": "Female rabbits were immunized subcutaneously at multiple sites with 1 mg of cortisol-3-CMO-BSA conjugate, prepared according to method of example 1, in saline emulsified with complete Freund's adjuvant (Difco Laboratories, Detroit, Michigan) on weeks 1, 2, 3 and 4 with booster injections of […] of the immunogen being given at longer intervals according to the antibody titer. Blood was collected from the marginal ear vein after three months of immunization. The serum was harvested and frozen for future use.\nInto appropriately labeled 12×75 mm plastic tubes containing polystyrene beads coated with cortisol antibodies generated according to this disclosure, was added 25 μl of standard serum, followed by 300 μl of radioactive assay solution containing a mixture of borate buffered saline, pH 8.8; 0.12% Triton X 100 and approximately 0.25 ng/ml of either the syn, anti or racemic mixture of ^125 I labeled tyrosine methyl ester derivative of cortisol-21-acetate-3-carboxymethyloxime. The reaction mixture was incubated with agitation at room temperature for one hour. The liquid contents of the tubes were aspirated and the radioactivity bound to the antibody coated beads was counted. The percent bound versus cortisol concentration was plotted. […] Knowing this preference, it would be advantageous in terms of sensitivity and specificity to employ only the syn isomer in assays for the determination of cortisol in biological fluids.",
  "data": [
    {"smiles": "COC(=O)[C@H](Cc1ccc(O)c([125I])c1)NC(=O)CO/N=C1\\C=C2CC[C@@H]3[C@H]([C@@H](O)C[C@@]4(C)[C@H]3CC[C@]4(O)C(=O)COC(C)=O)[C@@]2(C)CC1", "note": "[I^125 syn isomer]", "values": [
      {"measurement": "affinity of antibody for labeled antigen conjugate (percent bound versus cortisol concentration)", "setting": "approx. 0.25 ng/ml tracer, room temperature, one hour, borate buffered saline pH 8.8, compared with anti isomer and racemic mixture", "result": "demonstrably greater affinity"},
      {"measurement": "affinity constant calculated from slope of standard curves (FIG. 1)", "setting": "compared with I^125 -anti-isomer and I^125 -mixture (syn and anti)", "result": "highest"},
      {"measurement": "immunoavidity of antisera for the labeled isomer", "setting": "compared with labeled anti-isomer and racemic mixture", "result": "significant preference in immunoavidity"},
      {"measurement": "sensitivity of the antibody for the labeled isomer (FIG. 1)", "setting": "standard curves", "result": "increased sensitivity"}
    ]}
  ]
}
